{"source": "patent US20040253327A1", "about": "“Compositions and methods for reducing or controlling blood cholesterol, lipoproteins, triglycerides, and sugar and preventing or treating cardiovascular diseases” (priority 2003, published 2004)", "origin": "cited, not measured here", "key": {"[1]": {"settings": "human, in vivo"}}}
{"molecule": "CN(C)C(=N)N=C(N)N", "note": "[metformin]", "values": [{"measurement": "patients developing gastrointestinal complaints", "setting": "[1]", "value": "Up to 30%"}, {"measurement": "reduction of blood triglyceride and LDL cholesterol levels", "setting": "[1]", "value": "about 10%"}]}
{"molecule": "chromium picolinate", "values": [{"measurement": "triglyceride level", "setting": "after 2 months of supplementation (vs. 161 mg/dl)", "value": 133, "unit": "mg/dL"}, {"measurement": "reduction in triglyceride levels", "setting": "supplementation for 2 months, P<0.05", "value": 17.4, "unit": "%"}]}
